Experimental data from ChEMBL document CHEMBL1201862, “PubChem BioAssay data set” (2004).
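Growth conditions: 96-well plates. Treatment: test compound, 48 hours, 5 concentrations. Analysis: linear interpolation between bracketing concentrations; unreached endpoints set to highest concentration. GI50 marks 50% less growth.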 Calls of active or inactive are those of the source. No stated cut-off is given here; in the data, active = GI50 up to about 1.1 µM and inactive = higher.

Assays:
Experiment in all cases: NCI anticancer screen, dose series, 48 h
HCC 2998 = test system: HCC 2998
SK-MEL-2 = test system: SK-MEL-2
HCT-116 = test system: HCT-116
A498 = test system: A498
KM12 = test system: KM12
HCT-15 = test system: HCT-15
OVCAR-3 = test system: OVCAR-3
U-251 = test system: U-251
786-0 = test system: 786-0
CAKI-1 = test system: CAKI-1
HT-29 = test system: HT-29
NCI-H23 = test system: NCI-H23
K562 = test system: K562
SK-MEL-5 = test system: SK-MEL-5
IGROV-1 = test system: IGROV-1
LOX IMVI = test system: LOX IMVI

Compound	GI50 (HCC 2998)	GI50 (SK-MEL-2)	GI50 (HCT-116)	GI50 (A498)	GI50 (KM12)	GI50 (HCT-15)	GI50 (OVCAR-3)	GI50 (U-251)	GI50 (786-0)	GI50 (CAKI-1)	GI50 (HT-29)	GI50 (NCI-H23)	GI50 (K562)	GI50 (SK-MEL-5)	GI50 (IGROV-1)	GI50 (LOX IMVI)
COC(=O)C1(C)NCCc2c1[nH]c1ccccc21 (stereo not drawn)	> 100 µM (inactive)	> 100 µM (inactive)	> 100 µM (inactive)	> 100 µM (inactive)	> 100 µM (inactive)	> 100 µM	> 100 µM (inactive)	> 100 µM (inactive)	> 100 µM (inactive)	> 100 µM (inactive)	> 100 µM (inactive)	> 100 µM (inactive)	> 100 µM (inactive)	> 100 µM (inactive)	> 100 µM (inactive)	–
C=C1CCC(OC(C)=O)C2(C)C(OC(C)=O)CC3OC3(C)C2C(OC(C)=O)C2C(C)C(=O)OC2C1Cl (stereo not drawn)	> 100 µM (inactive)	> 100 µM (inactive)	> 100 µM (inactive)	> 100 µM (inactive)	> 100 µM (inactive)	> 100 µM	> 100 µM (inactive)	> 100 µM (inactive)	> 100 µM (inactive)	> 100 µM (inactive)	> 100 µM (inactive)	> 100 µM (inactive)	> 100 µM (inactive)	> 100 µM (inactive)	> 100 µM (inactive)	> 100 µM (inactive)
Cc1nc2ccccn2c1/N=N/c1ccc(C(=O)NN)cc1	75.7 µM (inactive)	–	–	27.7 µM (inactive)	–	54.2 µM	45 µM (inactive)	61.7 µM (inactive)	53.8 µM (inactive)	22.2 µM (inactive)	73.5 µM (inactive)	28.9 µM (inactive)	49.8 µM (inactive)	22.4 µM (inactive)	21.7 µM (inactive)	26.3 µM (inactive)
C[S+]=c1sc2ccccc2s1	> 100 µM (inactive)	> 100 µM (inactive)	> 100 µM (inactive)	> 100 µM (inactive)	> 100 µM (inactive)	> 100 µM	–	> 100 µM (inactive)	> 100 µM (inactive)	> 100 µM (inactive)	> 100 µM (inactive)	–	> 100 µM (inactive)	> 100 µM (inactive)	> 100 µM (inactive)	> 100 µM (inactive)
CN(C)C(=N)c1ccccc1	> 100 µM (inactive)	> 100 µM (inactive)	> 100 µM (inactive)	–	> 100 µM (inactive)	–	> 100 µM (inactive)	> 100 µM (inactive)	> 100 µM (inactive)	> 100 µM (inactive)	> 100 µM (inactive)	> 100 µM (inactive)	–	–	–	> 100 µM (inactive)
COc1ccc(C(=O)C(C(=O)CC(=O)Nc2cccc(C(F)(F)F)c2)c2ccc(OC)cc2)cc1 (stereo not drawn)	> 100 µM (inactive)	> 100 µM (inactive)	> 100 µM (inactive)	> 100 µM (inactive)	> 100 µM (inactive)	> 100 µM	> 100 µM (inactive)	> 100 µM (inactive)	> 100 µM (inactive)	> 100 µM (inactive)	> 100 µM (inactive)	> 100 µM (inactive)	> 100 µM (inactive)	> 100 µM (inactive)	> 100 µM (inactive)	–
CCc1ccccc1N1C(=O)C(=O)C(c2nc3ccccc3s2)C(=O)C1=O	> 100 µM (inactive)	> 100 µM (inactive)	48.3 µM (inactive)	–	> 100 µM (inactive)	> 100 µM	80.4 µM (inactive)	36.1 µM (inactive)	> 100 µM (inactive)	> 100 µM (inactive)	> 100 µM (inactive)	66.2 µM (inactive)	44.3 µM (inactive)	92 µM (inactive)	> 100 µM (inactive)	> 100 µM (inactive)
C[C@]12CCC(=O)C(OC(=O)c3ccc([N+](=O)[O-])cc3)=C1CCC2=O	> 100 µM (inactive)	–	> 100 µM (inactive)	> 100 µM (inactive)	> 100 µM (inactive)	> 100 µM	> 100 µM (inactive)	> 100 µM (inactive)	> 100 µM (inactive)	> 100 µM (inactive)	> 100 µM (inactive)	–	–	> 100 µM (inactive)	> 100 µM (inactive)	> 100 µM (inactive)
COC(=O)CCC(NC(=S)N/N=C(\C)c1cnccn1)C(=O)OC (stereo not drawn)	56.5 µM (inactive)	68.1 µM (inactive)	33.9 µM (inactive)	> 100 µM (inactive)	70.6 µM (inactive)	44.5 µM	34.5 µM (inactive)	52.4 µM (inactive)	58.6 µM (inactive)	–	93.3 µM (inactive)	87.5 µM (inactive)	22.9 µM (inactive)	34.2 µM (inactive)	69.8 µM (inactive)	31.6 µM (inactive)
N#CC(C#N)=c1ccc(=C2N3CCCC3CN2C23CC4CC(CC(C4)C2)C3)cc1 (stereo not drawn)	> 100 µM (inactive)	> 100 µM (inactive)	> 100 µM (inactive)	–	> 100 µM (inactive)	> 100 µM	> 100 µM (inactive)	> 100 µM (inactive)	> 100 µM (inactive)	–	> 100 µM (inactive)	> 100 µM (inactive)	> 100 µM (inactive)	> 100 µM (inactive)	> 100 µM (inactive)	> 100 µM (inactive)
Cc1ccc(S(=O)(=O)N/N=C2\C(=O)C3CC2C(Cl)C3Cl)cc1 (stereo not drawn)	> 100 µM (inactive)	–	> 100 µM (inactive)	> 100 µM (inactive)	–	> 100 µM	> 100 µM (inactive)	> 100 µM (inactive)	> 100 µM (inactive)	> 100 µM (inactive)	> 100 µM (inactive)	> 100 µM (inactive)	> 100 µM (inactive)	> 100 µM (inactive)	> 100 µM (inactive)	> 100 µM (inactive)
C[n+]1c2ccccc2c(CNC(CS)C(=O)O)c2ccccc21 (stereo not drawn)	31.5 µM (inactive)	26.8 µM (inactive)	17.5 µM (inactive)	17.2 µM (inactive)	19.7 µM (inactive)	20.7 µM	24.4 µM (inactive)	24.2 µM (inactive)	31.8 µM (inactive)	29.6 µM (inactive)	29.3 µM (inactive)	25.9 µM (inactive)	31.8 µM (inactive)	> 10 µM (inactive)	18.8 µM (inactive)	–
Nc1cccc(C(=O)/C=C/c2ccccc2O)c1	> 100 µM (inactive)	> 100 µM (inactive)	> 100 µM (inactive)	> 100 µM (inactive)	> 100 µM (inactive)	> 100 µM	> 100 µM (inactive)	98.6 µM (inactive)	33.1 µM (inactive)	> 100 µM (inactive)	68.2 µM (inactive)	> 100 µM (inactive)	32.9 µM (inactive)	> 100 µM (inactive)	> 100 µM (inactive)	31.4 µM (inactive)
[C-]#[N+][C@@H]1C2[C@H](CC[C@@]1(C)O)C(=C)CC[C@@H]2[C@@]1(C)CC[C@H](Cl)C(C)(C)O1 (stereo partly drawn)	11.1 µM (inactive)	6.3 µM (inactive)	2.23 µM (inactive)	18.5 µM (inactive)	3.53 µM (inactive)	2.55 µM	1.31 µM (inactive)	8.87 µM (inactive)	10.3 µM (inactive)	4.82 µM (inactive)	11.9 µM (inactive)	4.75 µM (inactive)	3.24 µM (inactive)	3.02 µM (inactive)	3.49 µM (inactive)	3.95 µM (inactive)
CCC12C=C(C(=O)OC)N3c4ccccc4C4CCN(CCC1)C2C43 (stereo not drawn)	29.7 µM (inactive)	> 100 µM (inactive)	68.7 µM (inactive)	66.2 µM (inactive)	48.3 µM (inactive)	64.3 µM	> 100 µM (inactive)	82.4 µM (inactive)	21.3 µM (inactive)	35.6 µM (inactive)	32.1 µM (inactive)	99.3 µM (inactive)	37.7 µM (inactive)	72.1 µM (inactive)	> 100 µM (inactive)	59.4 µM (inactive)
C#CC1(O)CCC2C3CCc4cc(Oc5nc(F)nc(-c6c7ccccc7c7n6CCS7)n5)ccc4C3CC[C@@]21C (stereo partly drawn)	19.2 µM (inactive)	5.62 µM (inactive)	12.1 µM (inactive)	–	15.1 µM (inactive)	15.1 µM	17.9 µM (inactive)	17.5 µM (inactive)	34.1 µM (inactive)	28.8 µM (inactive)	27.9 µM (inactive)	18.7 µM (inactive)	21.3 µM (inactive)	17.4 µM (inactive)	29.2 µM (inactive)	–
CC1=N/C(=C\c2cccc3ccccc23)C(=O)O1	> 100 µM (inactive)	> 100 µM (inactive)	> 100 µM (inactive)	> 100 µM (inactive)	> 100 µM (inactive)	> 100 µM	–	> 100 µM (inactive)	> 100 µM (inactive)	–	> 100 µM (inactive)	> 100 µM (inactive)	> 100 µM (inactive)	> 100 µM (inactive)	> 100 µM (inactive)	–
O=C(CC1Sc2ccccc2NC1=O)Nc1ccc([N+](=O)[O-])cc1[N+](=O)[O-] (stereo not drawn)	50.9 µM (inactive)	19.5 µM (inactive)	16 µM (inactive)	–	21.7 µM (inactive)	–	16.3 µM (inactive)	16 µM (inactive)	17.9 µM (inactive)	–	17.7 µM (inactive)	13.1 µM (inactive)	–	15.8 µM (inactive)	17.4 µM (inactive)	16.2 µM (inactive)
COc1ccc2nc3cc(Cl)ccc3c(NC(C)CCCN(CCCl)CCCl)c2c1 (stereo not drawn)	1.35 µM (inactive)	1.1 µM (active)	0.199 µM (active)	3.12 µM (inactive)	0.52 µM (active)	1.11 µM	0.853 µM (active)	0.607 µM (active)	0.31 µM (active)	0.785 µM (active)	0.272 µM (active)	0.51 µM (active)	0.262 µM (active)	1.97 µM (inactive)	0.317 µM (active)	0.176 µM (active)
